Laboratory results from patent publication US11208412B2 (DAEGU-GYEONGBUK MEDICAL INNOVATION FOUNDATION, priority 2017, dated 2021).

Assays:
Experiment in all cases: Kinase selectivity, DiscoverX scanMAX Kinase assay panel (% control)
Assay type in all cases: binding
[1] = biological target: T1, kinases of the scanMAX Kinase assay panel (Homo sapiens, UniProt P51956); conditions: NEK3; 1 uM
T1 construct: purchased DiscoverX Co. (contract measurement) scanMAX Kinase assay panel
T1 sequence (P51956 1-506): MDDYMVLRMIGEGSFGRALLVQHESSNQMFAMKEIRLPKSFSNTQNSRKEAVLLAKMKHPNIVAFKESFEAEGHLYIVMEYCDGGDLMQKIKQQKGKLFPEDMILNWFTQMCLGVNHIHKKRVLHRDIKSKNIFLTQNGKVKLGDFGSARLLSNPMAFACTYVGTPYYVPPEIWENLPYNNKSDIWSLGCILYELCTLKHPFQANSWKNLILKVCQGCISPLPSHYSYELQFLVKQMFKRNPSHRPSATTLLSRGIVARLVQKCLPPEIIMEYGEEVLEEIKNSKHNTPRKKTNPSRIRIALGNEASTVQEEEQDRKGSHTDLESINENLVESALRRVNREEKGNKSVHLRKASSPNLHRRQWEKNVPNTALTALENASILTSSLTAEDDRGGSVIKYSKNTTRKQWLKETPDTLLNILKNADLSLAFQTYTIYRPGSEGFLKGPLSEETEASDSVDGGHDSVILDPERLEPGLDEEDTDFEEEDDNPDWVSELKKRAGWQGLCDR
Method in brief: (§1)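 Read-out is % control, normalised so a positive-control compound sits at 0% and DMSO at 100%: (test − positive)/(negative − positive)×100. Each kinase received the compound at 1 uM in DMSO. A value below 35% counts as activity.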

[2] = biological target: T2, kinases of the scanMAX Kinase assay panel (Homo sapiens, UniProt O14757); conditions: CHEK1; 1 uM
T2 construct: purchased DiscoverX Co. (contract measurement) scanMAX Kinase assay panel
T2 sequence (O14757 1-476): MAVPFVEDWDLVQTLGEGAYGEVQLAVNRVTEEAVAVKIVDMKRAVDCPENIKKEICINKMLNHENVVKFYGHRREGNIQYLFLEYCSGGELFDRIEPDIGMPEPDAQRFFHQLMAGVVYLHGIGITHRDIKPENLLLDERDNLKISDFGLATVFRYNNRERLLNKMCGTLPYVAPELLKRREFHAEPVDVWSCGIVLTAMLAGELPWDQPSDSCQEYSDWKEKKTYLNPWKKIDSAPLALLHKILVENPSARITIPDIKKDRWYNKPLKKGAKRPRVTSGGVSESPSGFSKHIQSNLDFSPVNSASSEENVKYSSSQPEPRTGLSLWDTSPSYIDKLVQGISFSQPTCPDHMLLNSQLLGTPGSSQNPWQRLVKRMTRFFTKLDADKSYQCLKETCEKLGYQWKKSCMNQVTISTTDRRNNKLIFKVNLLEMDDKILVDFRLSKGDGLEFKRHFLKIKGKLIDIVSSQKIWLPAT
Method in brief: as §1

[3] = biological target: T3, kinases of the scanMAX Kinase assay panel (Homo sapiens, UniProt Q9Y6R4); conditions: MAP3K4; 1 uM
T3 construct: purchased DiscoverX Co. (contract measurement) scanMAX Kinase assay panel
Method in brief: as §1

[4] = biological target: T4, kinases of the scanMAX Kinase assay panel (Homo sapiens, UniProt Q9Y2H1); conditions: NDR2; 1 uM
T4 construct: purchased DiscoverX Co. (contract measurement) scanMAX Kinase assay panel
Method in brief: as §1

[5] = biological target: T5, kinases of the scanMAX Kinase assay panel (Homo sapiens, UniProt O14730); conditions: kinase RIOK3; 1 uM in DMSO
T5 construct: purchased DiscoverX Co. (contract measurement) scanMAX Kinase assay panel
T5 sequence (O14730 1-519): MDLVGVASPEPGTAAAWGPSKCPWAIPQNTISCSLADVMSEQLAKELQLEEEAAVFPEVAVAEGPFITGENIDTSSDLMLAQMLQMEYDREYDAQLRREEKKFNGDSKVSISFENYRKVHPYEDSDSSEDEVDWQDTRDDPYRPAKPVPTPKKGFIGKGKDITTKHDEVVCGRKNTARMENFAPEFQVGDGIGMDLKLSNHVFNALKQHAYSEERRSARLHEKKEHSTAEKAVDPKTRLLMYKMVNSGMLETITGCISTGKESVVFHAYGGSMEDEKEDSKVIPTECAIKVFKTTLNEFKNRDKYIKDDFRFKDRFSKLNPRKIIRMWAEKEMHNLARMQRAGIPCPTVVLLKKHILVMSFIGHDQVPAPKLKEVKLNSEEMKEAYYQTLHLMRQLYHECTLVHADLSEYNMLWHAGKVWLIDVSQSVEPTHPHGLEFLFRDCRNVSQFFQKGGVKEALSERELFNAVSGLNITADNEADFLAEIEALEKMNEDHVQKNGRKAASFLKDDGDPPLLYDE
Method in brief: as §1

[6] = biological target: T6, kinases of the scanMAX Kinase assay panel (Homo sapiens, UniProt Q9UQB9); conditions: AURKC; 1 uM
T6 construct: purchased DiscoverX Co. (contract measurement) scanMAX Kinase assay panel
T6 sequence (Q9UQB9 1-309): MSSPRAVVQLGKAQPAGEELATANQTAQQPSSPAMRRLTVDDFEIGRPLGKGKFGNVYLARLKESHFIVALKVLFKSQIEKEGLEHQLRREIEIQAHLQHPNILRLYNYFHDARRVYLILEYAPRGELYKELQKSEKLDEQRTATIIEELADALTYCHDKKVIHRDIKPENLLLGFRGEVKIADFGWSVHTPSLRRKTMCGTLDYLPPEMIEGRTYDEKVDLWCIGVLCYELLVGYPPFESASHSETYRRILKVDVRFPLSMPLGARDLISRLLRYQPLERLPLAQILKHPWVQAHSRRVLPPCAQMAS
Method in brief: as §1

[7] = biological target: T7, kinases of the scanMAX Kinase assay panel (Homo sapiens, UniProt P36897); conditions: kinase TGFBR1; 1 uM in DMSO
T7 construct: purchased DiscoverX Co. (contract measurement) scanMAX Kinase assay panel
T7 sequence (P36897 34-503): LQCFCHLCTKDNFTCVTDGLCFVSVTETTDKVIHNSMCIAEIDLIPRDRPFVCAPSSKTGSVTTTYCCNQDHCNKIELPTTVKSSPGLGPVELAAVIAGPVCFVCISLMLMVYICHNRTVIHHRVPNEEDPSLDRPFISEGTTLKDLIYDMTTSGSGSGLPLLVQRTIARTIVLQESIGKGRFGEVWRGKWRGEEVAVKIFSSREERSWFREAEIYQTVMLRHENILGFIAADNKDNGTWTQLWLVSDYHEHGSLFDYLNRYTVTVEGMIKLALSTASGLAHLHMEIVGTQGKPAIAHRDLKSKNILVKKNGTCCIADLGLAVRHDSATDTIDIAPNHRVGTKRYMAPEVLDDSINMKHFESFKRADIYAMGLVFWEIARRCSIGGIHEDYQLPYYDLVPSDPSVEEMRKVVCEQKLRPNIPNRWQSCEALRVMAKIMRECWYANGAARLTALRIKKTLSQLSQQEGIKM
Method in brief: as §1

T3 sequence (Q9Y6R4 whole entry): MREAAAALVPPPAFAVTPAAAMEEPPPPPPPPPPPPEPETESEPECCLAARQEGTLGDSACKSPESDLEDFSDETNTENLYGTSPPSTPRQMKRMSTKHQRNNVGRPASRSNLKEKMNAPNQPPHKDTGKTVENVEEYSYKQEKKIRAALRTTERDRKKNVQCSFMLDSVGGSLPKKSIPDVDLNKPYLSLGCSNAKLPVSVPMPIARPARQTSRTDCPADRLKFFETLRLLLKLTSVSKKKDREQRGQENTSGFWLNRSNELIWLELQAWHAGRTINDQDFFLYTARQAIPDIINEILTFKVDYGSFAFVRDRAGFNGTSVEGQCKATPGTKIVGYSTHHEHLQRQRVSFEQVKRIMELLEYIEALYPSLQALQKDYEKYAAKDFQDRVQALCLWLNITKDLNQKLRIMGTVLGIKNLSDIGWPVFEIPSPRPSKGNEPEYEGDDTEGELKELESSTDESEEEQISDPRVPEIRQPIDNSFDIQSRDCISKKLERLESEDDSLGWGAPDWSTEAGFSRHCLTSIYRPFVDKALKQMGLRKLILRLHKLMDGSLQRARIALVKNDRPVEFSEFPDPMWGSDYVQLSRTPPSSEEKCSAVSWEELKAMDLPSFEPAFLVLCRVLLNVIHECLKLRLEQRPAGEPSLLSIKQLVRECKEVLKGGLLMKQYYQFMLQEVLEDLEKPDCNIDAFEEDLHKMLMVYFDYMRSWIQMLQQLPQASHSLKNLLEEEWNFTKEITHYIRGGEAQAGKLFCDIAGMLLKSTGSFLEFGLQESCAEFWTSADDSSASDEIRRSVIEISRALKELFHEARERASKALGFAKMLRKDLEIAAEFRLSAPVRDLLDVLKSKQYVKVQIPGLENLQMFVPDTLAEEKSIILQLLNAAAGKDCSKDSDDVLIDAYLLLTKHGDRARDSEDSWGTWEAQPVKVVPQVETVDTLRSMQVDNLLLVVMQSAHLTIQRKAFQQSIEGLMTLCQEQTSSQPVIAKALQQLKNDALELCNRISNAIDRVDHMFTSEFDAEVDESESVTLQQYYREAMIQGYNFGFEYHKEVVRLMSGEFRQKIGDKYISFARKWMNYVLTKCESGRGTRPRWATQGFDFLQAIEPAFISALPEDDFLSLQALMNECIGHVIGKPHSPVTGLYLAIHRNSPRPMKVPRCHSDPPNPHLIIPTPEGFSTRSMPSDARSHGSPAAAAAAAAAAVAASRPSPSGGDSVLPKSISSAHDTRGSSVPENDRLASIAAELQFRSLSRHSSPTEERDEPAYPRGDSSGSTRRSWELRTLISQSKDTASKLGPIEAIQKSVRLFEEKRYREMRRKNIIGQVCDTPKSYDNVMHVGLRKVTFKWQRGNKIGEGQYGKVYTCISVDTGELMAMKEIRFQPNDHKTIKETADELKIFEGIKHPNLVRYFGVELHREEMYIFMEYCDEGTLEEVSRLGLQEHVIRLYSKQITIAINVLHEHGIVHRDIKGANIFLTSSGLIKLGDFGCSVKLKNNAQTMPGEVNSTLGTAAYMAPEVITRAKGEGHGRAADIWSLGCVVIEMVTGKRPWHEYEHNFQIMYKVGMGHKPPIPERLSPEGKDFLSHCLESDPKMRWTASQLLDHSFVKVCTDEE
T4 sequence (Q9Y2H1 whole entry): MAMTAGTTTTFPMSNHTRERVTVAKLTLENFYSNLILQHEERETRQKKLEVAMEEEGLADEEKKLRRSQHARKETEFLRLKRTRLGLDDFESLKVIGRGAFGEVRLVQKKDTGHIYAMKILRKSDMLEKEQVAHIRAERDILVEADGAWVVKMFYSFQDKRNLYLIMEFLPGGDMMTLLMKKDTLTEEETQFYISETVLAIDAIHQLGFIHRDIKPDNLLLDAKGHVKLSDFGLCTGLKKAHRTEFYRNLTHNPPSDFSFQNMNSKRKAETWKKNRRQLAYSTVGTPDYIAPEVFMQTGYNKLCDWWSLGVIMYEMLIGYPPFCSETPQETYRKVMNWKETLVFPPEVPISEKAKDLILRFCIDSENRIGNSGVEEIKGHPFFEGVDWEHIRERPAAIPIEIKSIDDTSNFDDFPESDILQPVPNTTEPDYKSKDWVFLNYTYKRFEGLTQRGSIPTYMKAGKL

Compound | remaining binding at 1 µM [1] [%] | remaining binding at 1 µM [2] [%] | remaining binding at 1 µM [3] [%] | remaining binding at 1 µM [4] [%] | remaining binding at 1 µM [5] [%] | remaining binding at 1 µM [6] [%] | remaining binding at 1 µM [7] [%]
CNc1nc(Nc2ccc(C(=O)N3CCOCC3)cc2OC)nc2[nH]cc(C#N)c12 [Example 1, 2-((2-methoxy-4-(morpholine-4-carbonyl)phenyl)amino)-4-(methylamino)-7H-pyrrolo[2,3-d]pyrimidine-5-carbonitrile] | 70 | 85 | 100 | 98 | 97 | 100 | 5.1
CC1(Nc2nc(Nc3cnn([C@H]4CCN(C5COC5)C[C@@H]4F)c3Cl)nc3[nH]cc(C#N)c23)CC1 [Example 52, 2-((5-chloro-1-((3S,4S)-3-fluoro-1-(oxetane-3-yl)piperidine-4-yl)-1H-pyrazole-4-yl)amino)((1-methylcyclopropyl)amino)-7H-pyrrolo[2,3-d]pyrimidine-5-carbonitrile] | 96 | 26 | 77 | 31 | 0.4 | 7.1 | 91
CCNc1nc(Nc2ccc(C(=O)N3CCC(N4CCOCC4)CC3)cc2OC)nc2[nH]cc(C(F)(F)F)c12 [Example 104, (4-((4-(ethylamino)-5-(trifluoromethyl)-7H-pyrrolo[2,3-d]pyrimidine-2-yl)amino)-3-methoxyphenyl)(4-morpholinopiperidine-1-yl)methanone] | 82 | 100 | 97 | 100 | 100 | 100 | 100
